Data from patent US20250145665A1, “MACROCYCLIC PEPTIDES USEFUL AS MODULATORS OF TNF ALPHA” (Bristol-Myers Squibb Company, priority 2023, published 2025).
pIC50: −log10 of the molar value. Starred links: 1 amine or outer side, 2 acyl side, 3 side chain; linkers in the order of their positions; H or OH if unused. Positions of bridges follow the written chain, without caps; N, C: chain ends. Non-standard residues stand in square brackets, D forms with d. Residues, ends and D or L forms follow the SMILES beside them. ξ: configuration not given here. *: point of attachment. Bip(4'-NH) = O=C([C@H](Cc1ccc(-c2ccc(N[*:3])cc2)cc1)N[*:1])[*:2]; Indazole3carbonyl(1-CH2COOH) = O=C(O)Cn1nc(C(=O)*)c2ccccc21; Bip(4'-COOH) = N[C@@H](Cc1ccc(-c2ccc(C(=O)O)cc2)cc1)C(=O)O; X27 = N=C(NCCC[C@@H](N[*:1])C(=O)[*:2])NCCc1ccc2c(c1)OCO2; X83 = N=C(NCCC[C@@H](N[*:1])C(=O)[*:2])NCCc1ccc(O)c(O)c1; X18 = N=C(NCCC[C@@H](N[*:1])C(=O)[*:2])NCCc1ccc(O)cc1; X35 = N=C(NCCC[C@@H](N[*:1])C(=O)[*:2])NCCc1ccc(N)cc1; X58 = N=C(NCCC[C@@H](N[*:1])C(=O)[*:2])NCCc1cccc(N)c1; Ala(morpholin-4-yl) = N[C@@H](CN1CCOCC1)C(=O)O; Bip = N[C@@H](Cc1ccc(-c2ccccc2)cc1)C(=O)O; ξP = O=C(O)C1CCCN1; Sar = CNCC(=O)O

Target: TNFα (Homo sapiens, UniProt P01375)
Assay: TNF-Induced HEK-Blue Assay
Assay type: cell-based

TNFα, sequence (P01375 77-233 limits assumed): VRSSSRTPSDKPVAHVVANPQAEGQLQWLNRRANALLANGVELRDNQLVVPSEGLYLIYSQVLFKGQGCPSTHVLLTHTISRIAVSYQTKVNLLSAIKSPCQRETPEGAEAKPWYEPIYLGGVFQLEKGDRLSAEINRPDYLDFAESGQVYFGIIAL

Row | Compound | pIC50
1 | CC(C)C[C@@H]1NC(=O)[C@H](CCCNC(=N)N)NC(=O)[C@H](C(C)C)NC(=O)C2CCCN2C(=O)[C@H](C(C)C)NC(=O)[C@@H](CCCNC(=N)NCCc2ccc(O)cc2)NC(=O)[C@H](CC(=O)O)NC(=O)[C@@H]2CCCN2C(=O)CN(C)C(=O)[C@H](Cc2ccc(-c3ccc(NC(=O)c4nn(CC(=O)O)c5ccccc45)cc3)cc2)NC(=O)[C@H](Cc2ccc(-c3ccc(C(=O)O)cc3)cc2)NC(=O)[C@H](CN2CCOCC2)NC(=O)CSC[C@@H](C(=O)NCC(N)=O)NC1=O (stereo partly shown) [Example 404] ({CH2CO}-[Ala(morpholin-4-yl)][Bip(4'-COOH)][Bip(4'-NH)](Indazole3carbonyl(1-CH2COOH))[Sar]PD[X18]V[ξP]VRLCG-NH2; thioether N-13) | 6.70 to 7.30
2 | CC(C)C[C@@H]1NC(=O)[C@H](CCCNC(=N)N)NC(=O)[C@H](C(C)C)NC(=O)C2CCCN2C(=O)[C@H](C(C)C)NC(=O)[C@@H](CCCNC(=N)NCCc2cccc(N)c2)NC(=O)[C@H](CC(=O)O)NC(=O)[C@@H]2CCCN2C(=O)CN(C)C(=O)[C@H](Cc2ccc(-c3ccc(NC(=O)c4nn(CC(=O)O)c5ccccc45)cc3)cc2)NC(=O)[C@H](Cc2ccc(-c3ccccc3)cc2)NC(=O)[C@H](CN2CCOCC2)NC(=O)CSC[C@@H](C(=O)NCC(N)=O)NC1=O (stereo partly shown) [Example 405] ({CH2CO}-[Ala(morpholin-4-yl)][Bip][Bip(4'-NH)](Indazole3carbonyl(1-CH2COOH))[Sar]PD[X58]V[ξP]VRLCG-NH2; thioether N-13) | 6.70 to 7.30
3 | CC(C)C[C@@H]1NC(=O)[C@H](CCCNC(=N)N)NC(=O)[C@H](C(C)C)NC(=O)C2CCCN2C(=O)[C@H](C(C)C)NC(=O)[C@@H](CCCNC(=N)NCCc2cccc(N)c2)NC(=O)[C@H](CC(=O)O)NC(=O)[C@@H]2CCCN2C(=O)CN(C)C(=O)[C@H](Cc2ccc(-c3ccc(NC(=O)c4nn(CC(=O)O)c5ccccc45)cc3)cc2)NC(=O)[C@H](Cc2ccc(-c3ccc(C(=O)O)cc3)cc2)NC(=O)[C@H](CN2CCOCC2)NC(=O)CSC[C@@H](C(=O)NCC(N)=O)NC1=O (stereo partly shown) [Example 406] ({CH2CO}-[Ala(morpholin-4-yl)][Bip(4'-COOH)][Bip(4'-NH)](Indazole3carbonyl(1-CH2COOH))[Sar]PD[X58]V[ξP]VRLCG-NH2; thioether N-13) | 6.70 to 7.30
4 | CC(C)C[C@@H]1NC(=O)[C@H](CCCNC(=N)N)NC(=O)[C@H](C(C)C)NC(=O)[C@@H]2CCCN2C(=O)[C@H](C(C)C)NC(=O)[C@@H](CCCNC(=N)NCCc2ccc(N)cc2)NC(=O)[C@H](CC(=O)O)NC(=O)[C@@H]2CCCN2C(=O)CN(C)C(=O)[C@H](Cc2ccc(-c3ccc(NC(=O)c4nn(CC(=O)O)c5ccccc45)cc3)cc2)NC(=O)[C@H](Cc2ccc(-c3ccccc3)cc2)NC(=O)[C@H](CN2CCOCC2)NC(=O)CSC[C@@H](C(=O)NCC(N)=O)NC1=O [Example 407] ({CH2CO}-[Ala(morpholin-4-yl)][Bip][Bip(4'-NH)](Indazole3carbonyl(1-CH2COOH))[Sar]PD[X35]VPVRLCG-NH2; thioether N-13) | 6.70 to 7.30
5 | CC(C)C[C@@H]1NC(=O)[C@H](CCCNC(=N)N)NC(=O)[C@H](C(C)C)NC(=O)[C@@H]2CCCN2C(=O)[C@H](C(C)C)NC(=O)[C@@H](CCCNC(=N)NCCc2ccc3c(c2)OCO3)NC(=O)[C@H](CC(=O)O)NC(=O)[C@@H]2CCCN2C(=O)CN(C)C(=O)[C@H](Cc2ccc(-c3ccc(NC(=O)c4nn(CC(=O)O)c5ccccc45)cc3)cc2)NC(=O)[C@H](Cc2ccc(-c3ccccc3)cc2)NC(=O)[C@H](CN2CCOCC2)NC(=O)CSC[C@@H](C(=O)NCC(N)=O)NC1=O [Example 408] ({CH2CO}-[Ala(morpholin-4-yl)][Bip][Bip(4'-NH)](Indazole3carbonyl(1-CH2COOH))[Sar]PD[X27]VPVRLCG-NH2; thioether N-13) | > 7.30
6 | CC(C)C[C@@H]1NC(=O)[C@H](CCCNC(=N)N)NC(=O)[C@H](C(C)C)NC(=O)[C@@H]2CCCN2C(=O)[C@H](C(C)C)NC(=O)[C@@H](CCCNC(=N)NCCc2ccc3c(c2)OCO3)NC(=O)[C@H](CC(=O)O)NC(=O)[C@@H]2CCCN2C(=O)CN(C)C(=O)[C@H](Cc2ccc(-c3ccc(NC(=O)c4nn(CC(=O)O)c5ccccc45)cc3)cc2)NC(=O)[C@H](Cc2ccc(-c3ccc(C(=O)O)cc3)cc2)NC(=O)[C@H](CN2CCOCC2)NC(=O)CSC[C@@H](C(=O)NCC(N)=O)NC1=O [Example 409] ({CH2CO}-[Ala(morpholin-4-yl)][Bip(4'-COOH)][Bip(4'-NH)](Indazole3carbonyl(1-CH2COOH))[Sar]PD[X27]VPVRLCG-NH2; thioether N-13) | 6.70 to 7.30
7 | CC(C)C[C@@H]1NC(=O)[C@H](CCCNC(=N)N)NC(=O)[C@H](C(C)C)NC(=O)C2CCCN2C(=O)[C@H](C(C)C)NC(=O)[C@@H](CCCNC(=N)NCCc2ccc(O)c(O)c2)NC(=O)[C@H](CC(=O)O)NC(=O)[C@@H]2CCCN2C(=O)CN(C)C(=O)[C@H](Cc2ccc(-c3ccc(NC(=O)c4nn(CC(=O)O)c5ccccc45)cc3)cc2)NC(=O)[C@H](Cc2ccc(-c3ccccc3)cc2)NC(=O)[C@H](CN2CCOCC2)NC(=O)CSC[C@@H](C(=O)NCC(N)=O)NC1=O (stereo partly shown) [Example 410] ({CH2CO}-[Ala(morpholin-4-yl)][Bip][Bip(4'-NH)](Indazole3carbonyl(1-CH2COOH))[Sar]PD[X83]V[ξP]VRLCG-NH2; thioether N-13) | 5.70 to 6.70
